Here are results for 2 compounds from US7935705B2, “N-alkylated rifampin” (Medtronic, Inc., priority 2007, dated 2011).

For data set [1], the system named is Staphylococcus aureus (ATCC 29213). Description: Disc zone of inhibition on agar plates coated with S. aureus. Type of data set: cell-based. The settings on record: for zone of inhibition: disc containing 5 μg, agar plates coated with S. aureus ATCC 29213, 35° C. for 24 hours. The protocol: The ability of the compound of Formula II to inhibit growth of Staphylococcus aureus (ATCC 29213) was determined in vitro. Briefly, agar plates were coated with S. aureus and discs containing 5 μg of rifampin and 5 μg of a compound of Formula II were placed on the coated plates. The plates were incubated at 35° C. for 24 hours and the zones of inhibition of the rifampin and the compound of Formula II were determined. The zone of inhibition for the rifampin loaded disc was 28 mm. The zone of inhibition for the disc with a compound of Formula II was 18 mm.

The conditions of data set [2]: after five EtO sterilization cycles; polymeric articles; cited from earlier work.
Data set [3] deals with Staphylococcus aureus (ATCC 29213). The data set can be described thus: Minimum Inhibitory Concentration (MIC) evaluation. Type of data set: cell-based. The settings on record: ATCC29213, S. aureus, in vitro, read-out: Baseline MIC.

As to “5,6,9,17,19,21-Hexahydroxy-23-methoxy-2,4,12,16,18,20,22-heptamethyl-8-[N-(4-methyl-1-piperazinyl)formimidoyl]-2,7-(epoxypentadeca[1,11,13]trienimino)-naphtho[2,1-b]furan-1,11(2H)-dione 21-acetate [rifampin]”, in data set [1], the zone of inhibition (usually the extent of the growth-free halo in a diffusion test) is reported as 28 mm. Besides, in data set [2], the rifampin recoverable is on record as 5%.

On to `COC1/C=C/OC2(C)Oc3c(C)c(O)c4c(O)c(c(/C=N/N5CC[N+](C)(CC[O-])CC5)c(O)c4c3C2=O)NC(=O)/C(C)=C\C=C\C(C)C(O)C(C)C(O)C(C)C(OC(C)=O)C1C` (centres unmarked) [compound of Formula II], for which, in data set [1], the zone of inhibition was 18 mm. The “activity against Staphlococcus aureus” value in data set [1] (qualitative statement in summary) is “has activity”. For the same compound, the MIC – broadly, the lowest concentration found to suppress growth – in data set [3] was in the range of 2 to 4 µg/mL.
